From US11021475B2, “Amide-substituted heterocyclic compounds useful as modulators of IL-12, IL-23 and/or IFN alpha responses” (Bristol-Myers Squibb Company, priority 2012, dated 2021)
Like-named read-outs stand apart in the source and are kept apart here.

Assays:
[1] = tested on: IL-23 stimulated Kit225 T cells (STAT-dependent luciferase reporter); assay: Kit225 T cell assay, IL-23-stimulated STAT-dependent luciferase reporter; type: cell-based, human
Procedure: (§1) Kit225 T cells with a stably-integrated STAT-dependent luciferase reporter were plated in RPMI (Gibco) containing 10% heat-inactivated FBS (Gibco) and 100 U/mL PenStrep (Gibco). The cells were then stimulated with either 20 ng/mL human recombinant IL-23 or 200 U/mL human recombinant IFNα (PBL InterferonSource) for 5-6 hours. Luciferase expression was measured using the STEADY-GLO® Luciferase Assay System (Promega) according to the manufacturer's instructions. Inhibition data were calculated by comparison to no inhibitor control wells for 0% inhibition and non-stimulated control wells for 100% inhibition.

[2] = tested on: IFNα stimulated Kit225 T cells (STAT-dependent luciferase reporter); assay: Kit225 T cell assay, IFNα-stimulated STAT-dependent luciferase reporter; type: cell-based, human
Procedure: as §1

[3] = 20 ng/mL human recombinant IL-23, 5-6 hours, read-out: IL-23 Kit225 Reporter (IC50)
[4] = 200 U/mL human recombinant IFNα, 5-6 hours, read-out: IFNα Kit225 Reporter (IC50)
[5] = KIT225, 20 ng/mL human recombinant IL-23, 5-6 hours, read-out: IL-23 Kit225 Reporter (IC50)
[6] = KIT225, 200 U/mL human recombinant IFNα, 5-6 hours, read-out: IFNα Kit225 Reporter (IC50)

| Structure (SMILES) | IC50 [1, 3] | IC50 [2, 4] | also measured |
| --- | --- | --- | --- |
| CNC(=O)c1nnc(Nc2cc(C)n(C)n2)cc1Nc1cccc(-c2cnc(C)s2)c1OC [Example 161] | 210 nM | 210 nM |  |
| CNC(=O)c1nnc(NC(=O)C2CC2)cc1Nc1cccc(-c2nc(C)cs2)c1OC [Example 95] | 100 nM | 20 nM |  |
| CNC(=O)c1nnc(Nc2cc(OC(C)C)ncn2)cc1Nc1ccccc1S(C)(=O)=O [Example 45] | 420 nM | 310 nM |  |
| [2H]C([2H])([2H])NC(=O)c1nnc(NC(=O)C2CC2)cc1Nc1cccc(-c2ncn(CC)n2)c1OC [Example 174] |  |  | IC50 ([1]; Homo sapiens, KIT225, read-out: IL-23 Kit225 Reporter (IC50, nM)): 20 nM; IC50 ([2]; Homo sapiens, KIT225, read-out: IFNα Kit225 Reporter (IC50, nM)): 6.97 nM |
| CNC(=O)c1nnc(Nc2cc(C#N)ccn2)cc1Nc1ccccc1S(C)(=O)=O [Example 11] | 100 nM | 60 nM |  |
| CNC(=O)c1nnc(Nc2cc(C)nc(C)n2)cc1Nc1cccc(-c2nnc(C)o2)c1OC [Example 153] | 150 nM | 30 nM |  |
| [2H]C([2H])([2H])NC(=O)c1nnc(NC(=O)C2CC2)cc1Nc1cccc(-c2ccn(CC(C)(C)O)n2)c1OC [Example 196] |  |  | IC50 [1, 5]: 70 nM; IC50 [2, 6]: 160 nM |
| CNC(=O)c1nnc(Nc2cc(C(C)=O)ccn2)cc1Nc1ccccc1S(C)(=O)=O [Example 33] | 660 nM | 400 nM |  |
| CNC(=O)c1nnc(Nc2ccccn2)cc1Nc1cccc(C(=O)NCCCO)c1OC [Example 170] | 230 nM | 390 nM |  |
| CNC(=O)c1nnc(Nc2ccccn2)cc1Nc1ccccc1S(C)(=O)=O [Example 31] | 80 nM | 90 nM |  |
| CNC(=O)c1nnc(Nc2cc(C)ccn2)cc1Nc1ccccc1S(C)(=O)=O [Example 23] | 100 nM | 40 nM |  |
| CS(=O)(=O)c1ccccc1Nc1cc(Nc2ccc(F)cn2)nnc1C(N)=O [Example 2] | 140 nM | 50 nM |  |
| CNC(=O)c1nnc(NC(=O)C2CC2)cc1Nc1cccc(-n2cccn2)c1OC [Example 64] | 250 nM | 60 nM |  |
| CNC(=O)c1nnc(Nc2cc(C(C)O)ccn2)cc1Nc1ccccc1S(C)(=O)=O (stereo not drawn) [Example 48] | 330 nM | 110 nM |  |
| [2H]C([2H])([2H])NC(=O)c1nnc(NC(=O)C2CC2)cc1Nc1cccc(-c2nc(C)nn2C)c1OC [Example 182] |  |  | IC50 [1, 5]: 190 nM; IC50 [2, 6]: 80 nM |
| Cc1cc(Nc2cc(Nc3ccccc3S(C)(=O)=O)c(C(N)=O)nn2)ncc1F [Example 18] | 100 nM | 30 nM |  |
| CNC(=O)c1nnc(Nc2ccnc(C)n2)cc1Nc1ccccc1S(C)(=O)=O [Example 39] | 340 nM | 130 nM |  |

| Structure (SMILES) | IC50 [1, 3] | IC50 [2, 4] | also measured |
| --- | --- | --- | --- |
| CNC(=O)c1nnc(Nc2ccc(F)cn2)cc1Nc1ccccc1S(C)(=O)=O [Example 3] | 100 nM | 60 nM |  |
| CNC(=O)c1nnc(Nc2ccc(CO)cn2)cc1Nc1ccccc1S(C)(=O)=O [Example 49] | 560 nM | 220 nM |  |
| CNC(=O)c1nnc(Nc2ccc(C)nn2)cc1Nc1ccccc1S(C)(=O)=O [Example 19] | 90 nM | 90 nM |  |
| CCOc1ccnc(Nc2cc(Nc3ccccc3S(C)(=O)=O)c(C(=O)NC)nn2)c1 [Example 37] | 540 nM | 80 nM |  |
| CNC(=O)c1nnc(Nc2ccc(OC)cn2)cc1Nc1ccccc1S(C)(=O)=O [Example 22] | 160 nM | 100 nM |  |
| CNC(=O)c1nnc(Nc2ccc(F)cn2)cc1Nc1cccc(-c2cccnn2)c1OC [Example 79] | 80 nM | 30 nM |  |
| CNC(=O)c1nnc(NC(=O)C2CC2)cc1Nc1cccc(-c2ncnn2C)c1OC [Example 179] | 450 nM | 140 nM |  |
| CNC(=O)c1nnc(NC(=O)C2CC2)cc1Nc1cccc(-c2cn(C)cn2)c1OC [Example 159] | 110 nM | 80 nM |  |
| CNC(=O)c1nnc(Nc2cc(C(C)(C)O)ccn2)cc1Nc1ccccc1S(C)(=O)=O [Example 50] | 310 nM | 490 nM |  |
| CNC(=O)c1nnc(Nc2ccccn2)cc1Nc1cccc(C(=O)NCCC(C)(C)O)c1OC [Example 168] | 100 nM | 80 nM |  |
| [2H]C([2H])([2H])NC(=O)c1nnc(NC(=O)C2CC2)cc1Nc1cccc(-c2cc(C)[nH]n2)c1OC [Example 200] |  |  | IC50 [1, 5]: 80 nM; IC50 [2, 6]: 30 nM |
| CNC(=O)c1nnc(Nc2cc(OC(C)C)nc(C)n2)cc1Nc1ccccc1S(C)(=O)=O [Example 44] | 250 nM | 100 nM |  |
| CNC(=O)c1nnc(Nc2ccccn2)cc1Nc1cccc(C(=O)NCC(C)(C)O)c1OC [Example 166] | 270 nM | 210 nM |  |
| [2H]C([2H])([2H])NC(=O)c1nnc(NC(=O)C2CC2)cc1Nc1cccc(C#N)c1OC [Example 202, 4-((3-cyano-2-methoxyphenyl)amino)-6-(cyclopropanecarboxamido)-N-trideuteromethylpyridazine-3-carboxamide] |  |  | IC50 [1, 5]: 290 nM; IC50 [2, 6]: 330 nM |
| CNC(=O)c1nnc(Nc2ccccn2)cc1Nc1cccc(-c2ncc(C)s2)c1OC [Example 117] | 80 nM | 30 nM |  |
| CNC(=O)c1nnc(Nc2ccccn2)cc1Nc1cccc(-c2ccnn2C)c1OC [Example 199] | 190 nM | 230 nM |  |
| CCc1cc(Nc2cc(Nc3ccccc3S(C)(=O)=O)c(C(=O)NC)nn2)ncn1 [Example 46] | 200 nM | 60 nM |  |

Further compounds by falling IC50 [1, 3], results first:

| IC50 [1, 3] | IC50 [2, 4] | Structure (SMILES) | also measured |
| --- | --- | --- | --- |
| 70 nM | 50 nM | CNC(=O)c1nnc(Nc2ccc(C(=O)OC)cn2)cc1Nc1ccccc1S(C)(=O)=O [Example 32] |  |
| 50 nM | 40 nM | CNC(=O)c1nnc(Nc2ccc(F)cn2)cc1Nc1cccc(-c2nccc(C)n2)c1OC [Example 83] |  |
| 40 nM | 50 nM | CNC(=O)c1nnc(Nc2cc(C)n(C)n2)cc1Nc1cccc(-c2nc(C)cs2)c1OC [Example 100] |  |
| 40 nM | 20 nM | CNC(=O)c1nnc(NC(=O)C2CC2)cc1Nc1cccc(-c2n[nH]c(C)n2)c1OC [Example 141] |  |
| 40 nM | 30 nM | CNC(=O)c1nnc(NC(=O)C2CC2)cc1Nc1cccc(-c2cscn2)c1OC [Example 126] |  |
| 40 nM | 50 nM | CNC(=O)c1nnc(Nc2cc(C)c(F)cn2)cc1Nc1ccccc1S(C)(=O)=O [Example 15] |  |
| 40 nM | 8.63 nM | CNC(=O)c1nnc(Nc2cc(C)n(C)n2)cc1Nc1cccc(-c2ncccn2)c1OC [Example 92] |  |
| 40 nM | 60 nM | CNC(=O)c1nnc(NC(=O)C2CC2)cc1Nc1cccc(-c2cnn(C)c2)c1OC [Example 63] |  |
| 30 nM | 20 nM | CNC(=O)c1nnc(Nc2cc(OC(C)C)nc(C)n2)cc1Nc1cccc(-c2ncn(C)n2)c1OC [Example 62] |  |
| 20 nM | 6.04 nM | CNC(=O)c1nnc(NC(=O)C2CC2)cc1Nc1cccc(-c2cnn(C)n2)c1OC [Example 136] |  |
| 20 nM | 20 nM | CNC(=O)c1nnc(Nc2cc(C)n(C)n2)cc1Nc1cccc(-c2cscn2)c1OC [Example 131] |  |
| 20 nM | 9.97 nM | CNC(=O)c1nnc(Nc2cc(OC)ncn2)cc1Nc1cccc(-c2ncn(C)n2)c1OC [Example 88] |  |
| 20 nM | 50 nM | CNC(=O)c1nnc(Nc2cc3ccccc3cn2)cc1Nc1ccccc1S(C)(=O)=O [Example 13] |  |
| 20 nM | 20 nM | CNC(=O)c1nnc(NC(=O)C2CC2)cc1Nc1cccc(-c2cn(C(C)C)nn2)c1OC [Example 190] |  |
| 20 nM | 10 nM | CNC(=O)c1nnc(Nc2cc(C)c(F)cn2)cc1Nc1cccc(-c2nnc(C)o2)c1OC [Example 150] |  |
| 20 nM | 20 nM | CNC(=O)c1nnc(Nc2ccc(F)cn2)cc1Nc1cccc(-c2ccn(C)n2)c1OC [Example 55] |  |
| 10 nM | 20 nM | CS(=O)(=O)c1ccccc1Nc1cc(Nc2ccccn2)nnc1C(N)=O [Example 27] |  |
| 10 nM | 7.13 nM | CNC(=O)c1nnc(Nc2cc(C)ncn2)cc1Nc1cccc(-c2ncn(C)n2)c1OC [Example 109] |  |
| 10 nM | 8.63 nM | CNC(=O)c1nnc(Nc2cc(C)nc(C)n2)cc1Nc1cccc(-c2c[nH]nn2)c1OC [Example 191] |  |
| 9.7 nM | 10 nM | CNC(=O)c1nnc(Nc2cc(C)nc(C)n2)cc1Nc1cccc(-c2cscn2)c1OC [Example 130] |  |
| 7.01 nM | 5.45 nM | CNC(=O)c1nnc(Nc2cc(C)c(F)cn2)cc1Nc1cccc(-c2ncn(C)n2)c1OC [Example 56] |  |
| 6.41 nM | 7.2 nM | CNC(=O)c1nnc(Nc2cc(C)nc(C)n2)cc1Nc1cccc(-c2nc(C)nn2C)c1OC [Example 184] |  |
| 2.96 nM | 1.6 nM | CCc1cc(Nc2cc(Nc3cccc(-c4ncn(C)n4)c3OC)c(C(=O)NC)nn2)nc(C)n1 [Example 115] |  |
